Non-standard residues stand in square brackets, D forms with d. Residues, ends and D or L forms follow the SMILES beside them. Hyp = O=C(O)[C@@H]1C[C@@H](O)CN1
Key:
collagenase type IV = test: Collagenase degradation study of hydrogels; assay type: in vitro ADME; conditions: for hydrogel degradation state: w/ collagenase
Experimental: (§1) As a simple functional test of the collagen hydrogel mimetic, we compared its ability to be broken down by collagenase (type IV, Invitrogen) the primary component of which is MMP2, a protease known to specifically cleave between the X and Gly residues of an X-Y-Gly repeat found in a triple helix.^42 (Pro-Lys-Gly)4(Pro-Hyp-Gly)4(Asp-Hyp-Gly)4 hydrogels were prepared at a concentration of 2.0% by weight in phosphate buffer and treated with either collagenase in HBSS (Hank's Balanced Salt Solution) or HBSS alone. The samples were allowed to incubate at room temperature (approximately 20° C.), 30° C. and 37° C. Hydrogels of rat-tail collagen were prepared in the same fashion with and without collagenase.
(§2) Using the previously described gelation procedure, gels of (Pro-Lys-Gly)4(Pro-Hyp-Gly)4(Asp-Hyp-Gly)4 were prepared at a concentration of 2.0% by weight in 10 mM phosphate buffer. Directly after annealing, 100 μl of solution was pipetted into two wells of a 96-well cell culture plate and allowed to incubate at room temperature overnight. A 0.3% by weight collagenase type IV solution was prepared by dissolving 15.0 mg of non-sterile lyophilized enzyme into 5 ml of Hank's Balanced Salt Solution (HBSS). The solution was then filter sterilized using a 0.2 μm filter attached to a syringe. Enzyme and buffer were from Invitrogen (Carlsbad, Calif.). After gelation was complete, 150 μl of collagenase was added on top of one well and 150 μL of HBSS was added on the other serving as a control. Three plates were prepared and incubated at room temperature (about 20° C.), 30° C. and 37° C. Each condition was observed and imaged at 0, 1, 4, 6, 12, 24 and 48 hours after addition of the collagenase or HBSS. Plates containing rat-tail collagen gels at a concentration of 3.0% by weight were prepared and analyzed in an identical manner. Table 1 and Table 2 below show collagenase mediated degradation of (Pro-Lys-Gly)4(Pro-Hyp-Gly)4(Asp-Hyp-Gly)4 and rat-tail collagen hydrogels, respectively. Samples were tested at room temperature (approximately 20° C., 30° C. and 37° C.) with and without collagenase. […] Control samples of (Pro-Lys-Gly)4(Pro-Hyp-Gly)4(Asp-Hyp-Gly)4 at room temperature and 30° C. were intact after 48 hours. However at 37° C. the hydrogels dissolved after 24 hours due to the proximity of this temperature to the triple helices melting temperature.

[1] = Hydrogel control in HBSS without collagenase; assay type: physicochemical; conditions: no collagenase (HBSS), 2.0% by weight gel
Experimental: as §1, §2

[2] = Circular dichroism thermal unfolding; assay type: physicochemical
Experimental: All peptide concentrations were measured by weight. All samples were adjusted to pH 7 with sodium hydroxide prior to the addition of buffer and then annealed for 15 minutes at 85° C. Lastly, the samples were incubated at room temperature for at least 12 hours prior to characterization to ensure complete assembly. Time course rheological studies are given in FIG. 13 to support this time scale.
All spectra and thermal unfolding studies were performed on a Jasco J-810 spectropolarimeter equipped with a Peltier temperature control system. Quartz cells were used with pathlengths of 0.01 cm and 0.1 cm depending on the peptide concentration and buffer. Spectra were collected from 190-250 nm. Melting experiments were performed from 5 to 85° C., monitoring at 225 nm, and the first derivative of the thermal unfolding curve was taken in order to determine the melting temperature of the sample. The molar residual ellipticity (MRE) is calculated from the measured ellipticity using the equation:
[formula] where θ is the ellipticity in mdeg, m is the molecular weight in g/mol, c is the concentration in mg/ml, l is the pathlength of the cuvette in cm, and nr is the number of amino acids in the peptide. The spectrum for 1.0% by weight is only shown from 250-205 nm due to the increase in background noise for higher concentration samples at lower wavelengths.

[3] = room temperature (approximately 20° C.)

Question: With “Rat-tail Collagen: collagen type I harvested from rat-tail tendon; hydrogels at 3.0% by weight used as comparator [reference compound]” as the compound, how does the “time after which hydrogel treated with collagenase was fully dissolved” value (“time after which hydrogel treated” for short) (collagenase type IV; 30° C.) read?
Answer: 4 h

Question: What about the “time after which hydrogel treated” value (collagenase type IV; 37° C.) of the same compound?
Answer: 1 h

Question: What about the “time after which hydrogel treated” value (collagenase type IV; [3]) of the same compound?
Answer: 4 h

Question: What about the hydrogel degradation state (collagenase type IV; 20° C., 0 h, 3.0% by weight gel) of the same compound?
Answer: intact

Question: What about the hydrogel degradation state (collagenase type IV; 20° C., 1 h, 3.0% by weight gel) of the same compound?
Answer: intact

Question: What about the hydrogel degradation state (collagenase type IV; 20° C., 4 h, 3.0% by weight gel) of the same compound?
Answer: dissolved

Question: What about the hydrogel degradation state (collagenase type IV; 20° C., 6 h, 3.0% by weight gel) of the same compound?
Answer: dissolved

Question: And the hydrogel degradation state (collagenase type IV; 20° C., 12 h, 3.0% by weight gel)?
Answer: dissolved

Question: What about the hydrogel degradation state (collagenase type IV; 20° C., 24 h, 3.0% by weight gel) of the same compound?
Answer: dissolved

Question: What about the hydrogel degradation state (collagenase type IV; 20° C., 48 h, 3.0% by weight gel) of the same compound?
Answer: dissolved

Question: And the hydrogel degradation state (collagenase type IV; 30° C., 0 h, 3.0% by weight gel)?
Answer: intact

Question: And the hydrogel degradation state (collagenase type IV; 30° C., 1 h, 3.0% by weight gel)?
Answer: intact

Question: And the hydrogel degradation state (collagenase type IV; 30° C., 4 h, 3.0% by weight gel)?
Answer: dissolved

Question: And the hydrogel degradation state (collagenase type IV; 30° C., 6 h, 3.0% by weight gel)?
Answer: dissolved

Question: What about the hydrogel degradation state (collagenase type IV; 30° C., 12 h, 3.0% by weight gel) of the same compound?
Answer: dissolved

Question: What about the hydrogel degradation state (collagenase type IV; 30° C., 24 h, 3.0% by weight gel) of the same compound?
Answer: dissolved

Question: And the hydrogel degradation state (collagenase type IV; 30° C., 48 h, 3.0% by weight gel)?
Answer: dissolved

Question: And the hydrogel degradation state (collagenase type IV; 37° C., 0 h, 3.0% by weight gel)?
Answer: intact

Question: And the hydrogel degradation state (collagenase type IV; 37° C., 1 h, 3.0% by weight gel)?
Answer: dissolved

Question: What about the hydrogel degradation state (collagenase type IV; 37° C., 4 h, 3.0% by weight gel) of the same compound?
Answer: dissolved

Question: And the hydrogel degradation state (collagenase type IV; 37° C., 6 h, 3.0% by weight gel)?
Answer: dissolved

Question: What about the hydrogel degradation state (collagenase type IV; 37° C., 12 h, 3.0% by weight gel) of the same compound?
Answer: dissolved

Question: What about the hydrogel degradation state (collagenase type IV; 37° C., 24 h, 3.0% by weight gel) of the same compound?
Answer: dissolved

Question: And the hydrogel degradation state (collagenase type IV; 37° C., 48 h, 3.0% by weight gel)?
Answer: dissolved

Question: For NCCCC[C@H](NC(=O)[C@@H]1CCCN1)C(=O)NCC(=O)N1CCC[C@H]1C(=O)N[C@@H](CCCCN)C(=O)NCC(=O)N1CCC[C@H]1C(=O)N[C@@H](CCCCN)C(=O)NCC(=O)N1CCC[C@H]1C(=O)N[C@@H](CCCCN)C(=O)NCC(=O)N1CCC[C@H]1C(=O)N1C[C@H](O)C[C@H]1C(=O)NCC(=O)N1CCC[C@H]1C(=O)N1C[C@H](O)C[C@H]1C(=O)NCC(=O)N1CCC[C@H]1C(=O)N1C[C@H](O)C[C@H]1C(=O)NCC(=O)N1CCC[C@H]1C(=O)N1C[C@H](O)C[C@H]1C(=O)NCC(=O)N[C@@H](CC(=O)O)C(=O)N1C[C@H](O)C[C@H]1C(=O)NCC(=O)N[C@@H](CC(=O)O)C(=O)N1C[C@H](O)C[C@H]1C(=O)NCC(=O)N[C@@H](CC(=O)O)C(=O)N1C[C@H](O)C[C@H]1C(=O)NCC(=O)N[C@@H](CC(=O)O)C(=O)N1C[C@H](O)C[C@H]1C(=O)NCC(=O)O [(Pro-Lys-Gly)4(Pro-Hyp-Gly)4(Asp-Hyp-Gly)4] (H-PKGPKGPKGPKGP[Hyp]GP[Hyp]GP[Hyp]GP[Hyp]GD[Hyp]GD[Hyp]GD[Hyp]GD[Hyp]G-OH; N-terminus assumed), which hydrogel degradation state ([1]; 20° C., 0 h) is on record?
Answer: intact

Question: And the hydrogel degradation state ([1]; 20° C., 1 h)?
Answer: intact

Question: What about the hydrogel degradation state ([1]; 20° C., 4 h) of the same compound?
Answer: intact

Question: And the hydrogel degradation state ([1]; 20° C., 6 h)?
Answer: intact

Question: What about the hydrogel degradation state ([1]; 20° C., 12 h) of the same compound?
Answer: intact

Question: And the hydrogel degradation state ([1]; 20° C., 24 h)?
Answer: intact

Question: And the hydrogel degradation state ([1]; 20° C., 48 h)?
Answer: intact

Question: And the hydrogel degradation state ([1]; 30° C., 0 h)?
Answer: intact

Question: What about the hydrogel degradation state ([1]; 30° C., 1 h) of the same compound?
Answer: intact

Question: And the hydrogel degradation state ([1]; 30° C., 4 h)?
Answer: intact

Question: And the hydrogel degradation state ([1]; 30° C., 6 h)?
Answer: intact

Question: What about the hydrogel degradation state ([1]; 30° C., 12 h) of the same compound?
Answer: intact

Question: And the hydrogel degradation state ([1]; 30° C., 24 h)?
Answer: intact

Question: What about the hydrogel degradation state ([1]; 30° C., 48 h) of the same compound?
Answer: intact

Question: And the hydrogel degradation state ([1]; 37° C., 0 h)?
Answer: intact

Question: What about the hydrogel degradation state ([1]; 37° C., 1 h) of the same compound?
Answer: intact

Question: And the hydrogel degradation state ([1]; 37° C., 4 h)?
Answer: intact

Question: And the hydrogel degradation state ([1]; 37° C., 6 h)?
Answer: intact

Question: And the hydrogel degradation state ([1]; 37° C., 12 h)?
Answer: intact

Question: And the hydrogel degradation state ([1]; 37° C., 24 h)?
Answer: dissolved

Question: What about the hydrogel degradation state ([1]; 37° C., 48 h) of the same compound?
Answer: dissolved

Question: And the “triple helix melting temperature” value ([2]; 10 mM phosphate buffer, pH 7, first derivative of CD unfolding curve at 225 nm)?
Answer: 40-41 °C

Question: What about the “triple helix cooperative transition (melting) temperature” value ([2]; 1.0% by weight in phosphate) of the same compound?
Answer: 41 °C

Question: And the melting transition ([2]; gel-forming samples in additional buffers (water, Tris, PBS), pH 7)?
Answer: 40-41 °C

Question: What about the melting temperature ([2]; samples that did not form gels in additional buffers (water, Tris, PBS), pH 7) of the same compound?
Answer: around 23 °C

Question: What about the “time after which hydrogel treated” value (collagenase type IV; 30° C.) of the same compound?
Answer: 4 h

Question: What about the “time after which hydrogel treated” value (collagenase type IV; 37° C.) of the same compound?
Answer: 1 h

Question: And the “time after which hydrogel treated” value (collagenase type IV; [3])?
Answer: 4 h

Question: And the hydrogel degradation state (collagenase type IV; 20° C., 0 h, 2.0% by weight gel)?
Answer: intact

Question: And the hydrogel degradation state (collagenase type IV; 20° C., 1 h, 2.0% by weight gel)?
Answer: intact

Question: And the hydrogel degradation state (collagenase type IV; 20° C., 4 h, 2.0% by weight gel)?
Answer: dissolved

Question: What about the hydrogel degradation state (collagenase type IV; 20° C., 6 h, 2.0% by weight gel) of the same compound?
Answer: dissolved

Question: What about the hydrogel degradation state (collagenase type IV; 20° C., 12 h, 2.0% by weight gel) of the same compound?
Answer: dissolved

Question: What about the hydrogel degradation state (collagenase type IV; 20° C., 24 h, 2.0% by weight gel) of the same compound?
Answer: dissolved

Question: And the hydrogel degradation state (collagenase type IV; 20° C., 48 h, 2.0% by weight gel)?
Answer: dissolved

Question: What about the hydrogel degradation state (collagenase type IV; 30° C., 0 h, 2.0% by weight gel) of the same compound?
Answer: intact

Question: What about the hydrogel degradation state (collagenase type IV; 30° C., 1 h, 2.0% by weight gel) of the same compound?
Answer: intact

Question: What about the hydrogel degradation state (collagenase type IV; 30° C., 4 h, 2.0% by weight gel) of the same compound?
Answer: dissolved

Question: What about the hydrogel degradation state (collagenase type IV; 30° C., 6 h, 2.0% by weight gel) of the same compound?
Answer: dissolved

Question: And the hydrogel degradation state (collagenase type IV; 30° C., 12 h, 2.0% by weight gel)?
Answer: dissolved

Question: What about the hydrogel degradation state (collagenase type IV; 30° C., 24 h, 2.0% by weight gel) of the same compound?
Answer: dissolved

Question: And the hydrogel degradation state (collagenase type IV; 30° C., 48 h, 2.0% by weight gel)?
Answer: dissolved

Question: What about the hydrogel degradation state (collagenase type IV; 37° C., 0 h, 2.0% by weight gel) of the same compound?
Answer: intact

Question: What about the hydrogel degradation state (collagenase type IV; 37° C., 1 h, 2.0% by weight gel) of the same compound?
Answer: dissolved

Question: What about the hydrogel degradation state (collagenase type IV; 37° C., 4 h, 2.0% by weight gel) of the same compound?
Answer: dissolved

Question: And the hydrogel degradation state (collagenase type IV; 37° C., 6 h, 2.0% by weight gel)?
Answer: dissolved

Question: What about the hydrogel degradation state (collagenase type IV; 37° C., 12 h, 2.0% by weight gel) of the same compound?
Answer: dissolved

Question: What about the hydrogel degradation state (collagenase type IV; 37° C., 24 h, 2.0% by weight gel) of the same compound?
Answer: dissolved

Question: What about the hydrogel degradation state (collagenase type IV; 37° C., 48 h, 2.0% by weight gel) of the same compound?
Answer: dissolved
